Assays:
Assay type in all cases: in vivo
C57BL/6J mice [1] = experiment: Pharmacological Test-3: once-daily instillation of Compounds 1, 2 and 3 for 2 weeks, lens elasticity; settings: once per day for 14 days; for Lens elasticity improvement: 2.5 μL/eye, 8-month-old mice, vs vehicle control
Method: The effect of once-daily instillation of each of Compounds 1, 2 and 3 for 2 weeks on the lens elasticity was examined.
(§1) A vehicle comprising 1.0% (w/v) of CO35, 0.1% (w/v) of ethyl pyruvate, 0.269% (w/v) of sodium dihydrogenphosphate monohydrate (NaH2 PO4.H2O), 0.433% (w/v) of disodium hydrogenphosphate (Na2HPO4), 0.2% (w/v) of hydroxypropyl methylcellulose, 0.5% (w/v) of NaCl, and purified water (appropriate amount) was prepared.
Each of Compounds 1 and 2 was stirred with the addition of the vehicle to give a 0.1% (w/v) solution.
To Compound 3 was added the vehicle to give a 0.1% (w/v) suspension. The resulting 0.1% (w/v) suspension was diluted with the vehicle to give a 0.03% (w/v) solution. Further, the resulting 0.03% (w/v) solution was diluted with the vehicle to give a 0.01% (w/v) solution.
After preparation, all were frozen.
1) Each test sample (2.5 μL/eye) was instilled into both eyes of 8-month-old C57BL/6J mice with a Pipetman once per day (around 9:00) for 14 days.
(§2) 2) After the final instillation, the mice were euthanized by carbon dioxide inhalation, and then the eyeballs were extracted and rinsed with Hank's balanced salt solution (HBSS).
(§3) 3) The sclera near the optic nerve was cut with a razor, the lens was removed through the incision, and the removed lens was immersed in HBSS.
(§4) 4) The lens was placed on a glass slide, and an all-in-one fluorescence microscope BZ-9000 (Keyence) was used to capture an image of the lens (Image a).
(§5) 5) Next, one cover glass (Corning(registered trade mark) 22×22 mm Square) was placed on the lens, and an image in which the thickness of the lens changed due to the weight was similarly captured (Image b).
(§6) 6) A change in the lens diameter was calculated from Equation 1 wherein the lens diameter of Image a is subtracted from the lens diameter of Image b, as described below. Then, the lens elasticity improvement of each sample group compared with the vehicle control group was calculated from Equation 2 described below. The mean value of each group was based on 10 eyes.
(§7) Change in lens diameter=Lens diameter in Image b of each test sample−Lens diameter in Image a of each test sample Equation 1
(§8) Lens elasticity improvement of each sample group=Mean change in lens diameter of each Test sample group−Mean change in lens diameter of Vehicle control group Equation 2

C57BL/6J mice [2] = experiment: Pharmacological Test-4: once-daily instillation of Compounds 3 and 4 for 2 weeks, lens elasticity; settings: once per day for 14 days; for Lens elasticity improvement: 2.5 μL/eye, 8-month-old mice, vs vehicle control
Method: The effect of once-daily instillation of each of Compounds 3 and 4 for 2 weeks on the lens elasticity was examined.
as §1
Compound 3 was stirred with the addition of the vehicle to give a 0.03% (w/v) suspension.
Compound 4 was stirred with the addition of the vehicle to give a 0.1% (w/v) suspension. The resulting 0.1% (w/v) suspension was diluted with the vehicle to give a 0.03% (w/v) suspension. Further, the resulting 0.03% (w/v) suspension was diluted with the vehicle to give a 0.01% (w/v) suspension.
(§9) After preparation, all were refrigerated.
1) Each test sample (2.5 μL/eye) was instilled into both eyes of 8-month-old
C57BL/6J mice with a Pipetman once per day (around 9:00) for 14 days.
as §2, §3, §4, §5, §6, §7, §8

Japanese White rabbit = experiment: Ocular irritation test-2 (McDonald-Shadduck method); design: key to Irritation Score of anterior segment of the eye: Discharge / Irritation Score of anterior segment of the eye: Anterior chamber flare / Irritation Score of anterior segment of the eye: Light reflex / Irritation Score of anterior segment of the eye: Iris / Irritation Score of anterior segment of the eye: Corneal opacity / Irritation Score of anterior segment of the eye: Corneal angiogenesis / Irritation Score of anterior segment of the eye: Corneal epithelial disorder / Irritation Score of anterior segment of the eye: Conjunctival hyperemia / Irritation Score of anterior segment of the eye: Conjunctival edema: —: No noteworthy findings; settings: 50 μL/eye, 10 times at 30-minute intervals; for Irritation Score of anterior segment of the eye: Anterior chamber flare / Irritation Score of anterior segment of the eye: Conjunctival edema / Irritation Score of anterior segment of the eye: Corneal angiogenesis / Irritation Score of anterior segment of the eye: Corneal opacity / Irritation Score of anterior segment of the eye: Discharge / Irritation Score of anterior segment of the eye: Iris / Irritation Score of anterior segment of the eye: Light reflex / Irritation Score of anterior segment of the eye: Conjunctival hyperemia: 1 hour after the final instillation; for Irritation Score of anterior segment of the eye: Conjunctival hyperemia: scale +1 slight, +2 moderate, +3 severe; for Irritation Score of anterior segment of the eye: Corneal epithelial disorder: 3 hours after the final instillation
Method: A vehicle eye drop and 0.01% (w/v) and 0.1% (w/v) Compound 4 eye drops were prepared in the same manner as Preparation of Test sample in Pharmacological test-4.
The vehicle eye drop, and the 0.01% (w/v) and 0.1% (w/v) Compound 4 eye drops were each instilled into one eye of a Japanese White rabbit at a dose volume of 50 μL/eye with pipette 10 times at 30-minute intervals. One hour after the final instillation, ocular irritation of anterior segment of the eye was evaluated using a slit lamp according to the McDonald-Shadduck method. Observation for corneal epithelial disorder was conducted 3 hours after the final instillation.
The ocular irritation of anterior segment of the eye was scored according to the following criteria: • +1: slight; +2: moderate; +3: severe

C57BL/6J mice [3] = experiment: Pharmacological Test-5: once-daily instillation of Compounds 5, 6 and 7 for 2 weeks, lens elasticity; settings: once per day for 14 days; for Lens elasticity improvement: 2.5 μL/eye, 8-month-old mice, vs vehicle control
Method: The effect of once-daily instillation of each of Compounds 5, 6, and 7 for 2 weeks on the lens elasticity was examined.
as §1
Compound 5 was stirred with the addition of the vehicle to give a 0.1% (w/v) suspension. The resulting 0.1% (w/v) suspension was diluted with the vehicle to give a 0.03% (w/v) suspension.
Compound 6 was stirred with the addition of the vehicle to give a 0.1% (w/v) suspension. The resulting 0.1% (w/v) a suspension was diluted with the vehicle to give a 0.03% (w/v) suspension.
Compound 7 was stirred with the addition of the vehicle to give a 0.1% (w/v) suspension.
as §9
EVO6 was stirred with the addition of the vehicle to give a 0.03% (w/v) solution, which was for comparison in the test for Compounds 5, 6 and 7. After preparation, it was refrigerated.
1) Each test sample (2.5 μL/eye) was instilled into both eyes of 8-month-old C57BL/6J mice with a Pipetman once per day (around 13:30) for 14 days.
as §2, §3, §4, §5
as §6, with “8” for “10”
as §7, §8

[4] = all of the concentrations of 0.01%, 0.03% and 0.1%
[5] = concentrations of 0.03% and 0.1%

OCCCCCC(S)CCS (centres unmarked) [Compound 2, 6,8-Dimercaptooctan-1-ol]
Lens elasticity effect (in words) (C57BL/6J mice [1]; 0.03% sample group): potent elasticity improving effect | Lens elasticity improvement (C57BL/6J mice [1]; 0.03% sample): 42.2 μm

OCCCCCC1CCSS1 (centres unmarked) [Compound 3, 5-(1,2-Dithiolan-3-yl)pentan-1-ol]
Lens elasticity improvement (C57BL/6J mice [1]; 0.01% sample): 21.5 μm | Lens elasticity improvement (C57BL/6J mice [1]; 0.03% sample): 47.3 μm | Lens elasticity improvement (C57BL/6J mice [1]; 0.1% sample): 60.1 μm | Lens elasticity effect (in words) (C57BL/6J mice [1]; [4]): showed an elasticity improving effect | Lens elasticity improvement (C57BL/6J mice [2]; 0.03% sample): 39.9 μm

OCCCCC[C@@H]1CCSS1 [Compound 4]
Irritation in anterior segment of the eye (in words) (Japanese White rabbit; 0.01% (w/v) and 0.1% (w/v) eye drops): No irritation was observed | Irritation Score of anterior segment of the eye: Anterior chamber flare (Japanese White rabbit; 0.01% eye drop): — | Irritation Score of anterior segment of the eye: Conjunctival edema (Japanese White rabbit; 0.01% eye drop): — | Irritation Score of anterior segment of the eye: Corneal angiogenesis (Japanese White rabbit; 0.01% eye drop): — | Irritation Score of anterior segment of the eye: Corneal opacity (Japanese White rabbit; 0.01% eye drop): — | Irritation Score of anterior segment of the eye: Discharge (Japanese White rabbit; 0.01% eye drop): — | Irritation Score of anterior segment of the eye: Iris (Japanese White rabbit; 0.01% eye drop): — | Irritation Score of anterior segment of the eye: Light reflex (Japanese White rabbit; 0.01% eye drop): — | Irritation Score of anterior segment of the eye: Conjunctival hyperemia (Japanese White rabbit; 0.01% eye drop): — | Irritation Score of anterior segment of the eye: Corneal epithelial disorder (Japanese White rabbit; 0.01% eye drop): — | Irritation Score of anterior segment of the eye: Anterior chamber flare (Japanese White rabbit; 0.1% eye drop): — | Irritation Score of anterior segment of the eye: Conjunctival edema (Japanese White rabbit; 0.1% eye drop): — | Irritation Score of anterior segment of the eye: Corneal angiogenesis (Japanese White rabbit; 0.1% eye drop): — | Irritation Score of anterior segment of the eye: Corneal opacity (Japanese White rabbit; 0.1% eye drop): — | Irritation Score of anterior segment of the eye: Discharge (Japanese White rabbit; 0.1% eye drop): — | Irritation Score of anterior segment of the eye: Iris (Japanese White rabbit; 0.1% eye drop): — | Irritation Score of anterior segment of the eye: Light reflex (Japanese White rabbit; 0.1% eye drop): — | Irritation Score of anterior segment of the eye: Conjunctival hyperemia (Japanese White rabbit; 0.1% eye drop): — | Irritation Score of anterior segment of the eye: Corneal epithelial disorder (Japanese White rabbit; 0.1% eye drop): — | Lens elasticity improvement (C57BL/6J mice [2]; 0.01% sample): 31.1 μm | Lens elasticity improvement (C57BL/6J mice [2]; 0.03% sample): 60.2 μm | Lens elasticity improvement (C57BL/6J mice [2]; 0.1% sample): 66.7 μm | Lens elasticity effect (in words) (C57BL/6J mice [2]; [4]): showed an elasticity improving effect

OCCCCCCC1CCSS1 (centres unmarked) [Compound 5, 6-(1,2-Dithiolan-3-yl)hexan-1-ol]
Lens elasticity improvement (C57BL/6J mice [3]; 0.03% sample): 22.3 μm | Lens elasticity improvement (C57BL/6J mice [3]; 0.1% sample): 26.6 μm | Lens elasticity effect (in words) (C57BL/6J mice [3]; [5]): potent elasticity improving effect

OCCCCC1CCSS1 (centres unmarked) [Compound 6, 4-(1,2-Dithiolan-3-yl)butan-1-ol]
Lens elasticity improvement (C57BL/6J mice [3]; 0.03% sample): 40.0 μm | Lens elasticity improvement (C57BL/6J mice [3]; 0.1% sample): 58.9 μm | Lens elasticity effect (in words) (C57BL/6J mice [3]; [5]): potent elasticity improving effect

OCCOCCC1CCSS1 (centres unmarked) [Compound 7, 2-[2-(1,2-Dithiolan-3-yl)ethoxy]ethan-1-ol]
Lens elasticity effect (in words) (C57BL/6J mice [3]; 0.1% sample group): potent elasticity improving effect | Lens elasticity improvement (C57BL/6J mice [3]; 0.1% sample): 41.4 μm
